Assay results taken from the supplement of paper PMC11061612.

Legend:
Capivasertib = compound: C1CN(CCC1(C(=O)N[C@@H](CCO)C2=CC=C(C=C2)Cl)N)C3=NC=NC4=C3C=CN4 [Capivasertib]; conditions: max 10 µM
Method in brief: (§1)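 Following 24 hours at 37°C and 5% CO2, cancer cell lines in 1536-well plates with 7.5 μl DMEM/F12 or RPMI and 10% FBS were dosed for 72 hours, final DMSO typically being 0.2%. CellTiter-Glo 2.0 luminescence, scaled between blank-well and DMSO-well means, gave the viability readout. Dose responses were fitted to a two-parameter logistic curve with a non-linear mixed effects model, and the single-agent IC50 was derived from this fit.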

AZD1775 = compound: C=CCn1c(=O)c2cnc(Nc3ccc(N4CCN(C)CC4)cc3)nc2n1-c1cccc(C(C)(C)O)n1 [AZD1775]; conditions: max 3 µM
Method in brief: as §1

Trametinib = compound: CC(=O)Nc1cccc(-n2c(=O)n(C3CC3)c(=O)c3c(Nc4ccc(I)cc4F)n(C)c(=O)c(C)c32)c1 [Trametinib]; conditions: max 1 µM
Method in brief: as §1

Palbociclib = compound: CC(=O)c1c(C)c2cnc(Nc3ccc(N4CCNCC4)cn3)nc2n(C2CCCC2)c1=O [Palbociclib]; conditions: max 10 µM
Method in brief: as §1

AZD1390 = compound: CC(C)n1c(=O)n(C)c2cnc3cc(F)c(-c4ccc(OCCCN5CCCCC5)nc4)cc3c21 [AZD1390]; conditions: max 0.3 µM
Method in brief: as §1

Venetoclax = compound: CC1(C)CCC(CN2CCN(c3ccc(C(=O)NS(=O)(=O)c4ccc(NCC5CCOCC5)c([N+](=O)[O-])c4)c(Oc4cnc5[nH]ccc5c4)c3)CC2)=C(c2ccc(Cl)cc2)C1 [Venetoclax]; conditions: max 1 µM
Method in brief: as §1

Dasatinib = compound: CC1=C(C(=CC=C1)Cl)NC(=O)C2=CN=C(S2)NC3=CC(=NC(=N3)C)N4CCN(CC4)CCO [Dasatinib]; conditions: max 2 µM
Method in brief: as §1

SG3199 = compound: CC1=CN2[C@@H](C1)C=NC3=CC(=C(C=C3C2=O)OC)OCCCCCOC4=C(C=C5C(=C4)N=C[C@@H]6CC(=CN6C5=O)C)OC [SG3199]; conditions: max 0.001 µM
Method in brief: as §1

AZD2811 = compound: CCN(CCO)CCCOc1ccc2c(Nc3cc(CC(=O)Nc4cccc(F)c4)[nH]n3)ncnc2c1 [AZD2811]; conditions: max 1 µM
Method in brief: as §1

SN-38 = compound: CCc1c2c(nc3ccc(O)cc13)-c1cc3c(c(=O)n1C2)COC(=O)[C@]3(O)CC [SN-38]; conditions: max 0.3 µM
Method in brief: as §1

AZD0156 = compound: CN(C)CCCOc1ccc(-c2ccc3ncc4c(c3c2)n(C2CCOCC2)c(=O)n4C)cn1 [AZD0156]; conditions: max 3 µM
Method in brief: as §1

AZD4320 = compound: CN(CC[C@H](CSC1=CC=CC=C1)NC2=C(C=C(C=C2)S(=O)(=O)NC(=O)C3=CC=C(C=C3)N4CCC(CC4)[C@H](C5=CC=CC=C5C6=CC=C(C=C6)Cl)O)S(=O)(=O)C(F)(F)F)CCO [AZD4320]; conditions: max 1 µM
Method in brief: as §1

Alisertib = compound: COc1cc(Nc2ncc3c(n2)-c2ccc(Cl)cc2C(c2c(F)cccc2OC)=NC3)ccc1C(=O)O [Alisertib]; conditions: max 10 µM
Method in brief: as §1

Gefitinib = compound: COc1cc2ncnc(Nc3ccc(F)c(Cl)c3)c2cc1OCCCN1CCOCC1 [Gefitinib]; conditions: max 10 µM
Method in brief: as §1

Prexasertib = compound: COc1cccc(OCCCN)c1-c1cc(Nc2cnc(C#N)cn2)n[nH]1 [Prexasertib]; conditions: max 1 µM
Method in brief: as §1

Doxorubicin = compound: COc1cccc2c1C(=O)c1c(O)c3c(c(O)c1C2=O)C[C@@](O)(C(=O)CO)C[C@@H]3O[C@H]1C[C@H](N)[C@H](O)[C@H](C)O1 [Doxorubicin]; conditions: max 1 µM
Method in brief: as §1

AZD5153 = compound: COc1nnc2ccc(N3CCC(c4ccc(OCCN5CCN(C)C(=O)[C@H]5C)cc4)CC3)nn12 [AZD5153]; conditions: max 1 µM
Method in brief: as §1

Lapatinib = compound: CS(=O)(=O)CCNCc1ccc(-c2ccc3ncnc(Nc4ccc(OCc5cccc(F)c5)c(Cl)c4)c3c2)o1 [Lapatinib]; conditions: max 10 µM
Method in brief: as §1

AZD8186 = compound: C[C@@H](Nc1cc(F)cc(F)c1)c1cc(C(=O)N(C)C)cc2c(=O)cc(N3CCOCC3)oc12 [AZD8186]; conditions: max 3 µM
Method in brief: as §1

Crizotinib = compound: C[C@@H](Oc1cc(-c2cnn(C3CCNCC3)c2)cnc1N)c1c(Cl)ccc(F)c1Cl [Crizotinib]; conditions: max 10 µM
Method in brief: as §1

Savolitinib = compound: C[C@@H](c1ccc2nccn2c1)n1nnc2ncc(-c3cnn(C)c3)nc21 [Savolitinib]; conditions: max 1 µM
Method in brief: as §1

AZD6738 = compound: C[C@@H]1COCCN1C2=NC(=NC(=C2)C3(CC3)[S@](=N)(=O)C)C4=C5C=CNC5=NC=C4 [AZD6738]; conditions: max 10 µM
Method in brief: as §1

AZD5991 = compound: Cc1c2c(nn1C)CSCc1cc(n(C)n1)CSc1cc(c3ccccc3c1)OCCCc1c(C(=O)O)n(C)c3c-2c(Cl)ccc13 [AZD5991]; conditions: max 1 µM
Method in brief: as §1

AZD7648 = compound: Cc1cc2ncnn2cc1Nc1ncc2c(n1)n(C1CCOCC1)c(=O)n2C [AZD7648]; conditions: max 10 µM
Method in brief: as §1

Taselisib = compound: Cc1nc(-c2cn3c(n2)-c2ccc(-c4cnn(C(C)(C)C(N)=O)c4)cc2OCC3)n(C(C)C)n1 [Taselisib]; conditions: max 10 µM
Method in brief: as §1

Selumetinib = compound: Cn1cnc2c(F)c(Nc3ccc(Br)cc3Cl)c(C(=O)NOCCO)cc21 [Selumetinib]; conditions: max 10 µM
Method in brief: as §1

MK-2206 = compound: NC1(c2ccc(-c3nc4ccn5c(=O)[nH]nc5c4cc3-c3ccccc3)cc2)CCC1 [MK-2206]; conditions: max 10 µM
Method in brief: as §1

Olaparib = compound: O=C(c1cc(Cc2n[nH]c(=O)c3ccccc23)ccc1F)N1CCN(C(=O)C2CC2)CC1 [Olaparib]; conditions: max 10 µM
Method in brief: as §1

Cell Line	IC50, cell viability 72 h (Capivasertib)	IC50, cell viability 72 h (AZD1775)	IC50, cell viability 72 h (Trametinib)	IC50, cell viability 72 h (Palbociclib)	IC50, cell viability 72 h (AZD1390)	IC50, cell viability 72 h (Venetoclax)	IC50, cell viability 72 h (Dasatinib)	IC50, cell viability 72 h (SG3199)	IC50, cell viability 72 h (AZD2811)	IC50, cell viability 72 h (SN-38)	IC50, cell viability 72 h (AZD0156)	IC50, cell viability 72 h (AZD4320)	IC50, cell viability 72 h (Alisertib)	IC50, cell viability 72 h (Gefitinib)	IC50, cell viability 72 h (Prexasertib)	IC50, cell viability 72 h (Doxorubicin)	IC50, cell viability 72 h (AZD5153)	IC50, cell viability 72 h (Lapatinib)	IC50, cell viability 72 h (AZD8186)	IC50, cell viability 72 h (Crizotinib)	IC50, cell viability 72 h (Savolitinib)	IC50, cell viability 72 h (AZD6738)	IC50, cell viability 72 h (AZD5991)	IC50, cell viability 72 h (AZD7648)	IC50, cell viability 72 h (Taselisib)	IC50, cell viability 72 h (Selumetinib)	IC50, cell viability 72 h (MK-2206)	IC50, cell viability 72 h (Olaparib)
KY821 (Acute Myeloid Leukemia)	> 10000 nM	212 nM	5.35 nM	610 nM	> 300 nM	9.8 nM	> 2000 nM	> 1 nM	> 1000 nM	8.99 nM	> 3000 nM	4.53 nM	28.6 nM	> 10000 nM	8.46 nM	272 nM	22.1 nM	> 10000 nM	2700 nM	4630 nM	> 1000 nM	3070 nM	13.2 nM	> 10000 nM	90.7 nM	623 nM	> 10000 nM	> 10000 nM
NCI-H661 (Non-Small Cell Lung Carcinoma)	> 10000 nM	765 nM	> 1000 nM	> 10000 nM	> 300 nM	> 1000 nM	> 2000 nM	> 1 nM	> 1000 nM	> 300 nM	> 3000 nM	> 1000 nM	> 10000 nM	> 10000 nM	46.8 nM	> 1000 nM	> 1000 nM	> 10000 nM	> 3000 nM	> 10000 nM	> 1000 nM	> 10000 nM	> 1000 nM	> 10000 nM	> 10000 nM	> 10000 nM		> 10000 nM
PC-3 (Prostate Carcinoma)	> 10000 nM	> 3000 nM	> 1000 nM	> 10000 nM	> 300 nM	> 1000 nM	> 2000 nM	> 1 nM	> 1000 nM	82.7 nM	> 3000 nM	> 1000 nM	> 10000 nM	> 10000 nM	> 1000 nM	> 1000 nM	> 1000 nM	> 10000 nM	> 3000 nM	> 10000 nM	> 1000 nM	> 10000 nM	> 1000 nM	> 10000 nM	> 10000 nM	> 10000 nM		> 10000 nM
